Measured values published in patent US20240124444A1 (Celgene Corporation, priority 2020, published 2024).
Read-outs that look alike come from different tables or passages of the source.

System: C. parvum strain UGA1
Experiment: C. parvum growth inhibition assay (Nluc luminescence in HCT-8 cells)
Type: cell-based, Cryptosporidium parvum
Conditions: Cryptosporidium parvum; for EC50: HCT-8, 48 h, C. parvum growth inhibition in HCT-8 cells, 48 hours, 6 concentrations 10-0.04 μM; for inhibition at 1 µM / inhibition at 10 µM: HCT-8; for inhibition at 1 µM: read-out: % inh @ 1 uM C. parvum; for inhibition at 10 µM: read-out: % inh @ 10 uM C. parvum
[1] = single point inhibition @ 10 uM
[2] = single point inhibition at 1 uM
[3] = single point inhibition at 10 uM

| SMILES | EC50 [µM] | inhibition at 1 µM (single point inhibition @ 1 uM) [%] | inhibition at 10 µM [1] [%] | inhibition at 1 µM [2] [%] | inhibition at 10 µM [3] [%] |
| --- | --- | --- | --- | --- | --- |
| Cc1cc(-c2cc3cnc(NC(=N)C4CC4)cc3[nH]2)ccn1 [Example 96, N-(2-(2-methylpyridin-4-yl)-1H-pyrrolo[3,2-c]pyridin-6-yl)cyclopropanecarboximidamide] | > 1 | – | – | – | – |
| FC(F)(F)COc1nccc(-c2cc3cnc(NC4CCOCC4)cc3[nH]2)n1 [Example 380, N-(tetrahydro-2H-pyran-4-yl)-2-(2-(2,2,2-trifluoroethoxy)pyrimidin-4-yl)-1H-pyrrolo[3,2-c]pyridin-6-amine] | > 1 | – | – | – | – |
| CC(C)n1cc(C(=O)Nc2cc3[nH]c(-c4ccnc(NCC(F)(F)F)n4)cc3cn2)cn1 [Example 172, 1-isopropyl-N-(2-(2-(2,2,2-trifluoroethylamino)pyrimidin-4-yl)-1H-pyrrolo[3,2-c]pyridin-6-yl)-1H-pyrazole-4-carboxamide] | – | 67 to 100 | 67 to 100 | – | – |
| CC(=O)Nc1cc2[nH]c(-c3ccncc3)cc2cn1 [Example 181, N-(2-(pyridin-4-yl)-1H-pyrrolo[3,2-c]pyridin-6-yl)acetamide] | – | 0 to 33 | 67 to 100 | – | – |
| O=C(Nc1cc2[nH]c(C(F)(F)F)cc2cn1)C1CCCC1 [Example 111, N-(2-(trifluoromethyl)-1H-pyrrolo[3,2-c]pyridin-6-yl)cyclopentanecarboxamide] | > 1 | – | – | – | – |
| CN1CCC(c2cc3cnc(NC(=O)c4cnn(C)c4)cc3[nH]2)CC1 [Example 336, 1-methyl-N-(2-(1-methylpiperidin-4-yl)-1H-pyrrolo[3,2-c]pyridin-6-yl)-1H-pyrazole-4-carboxamide] | – | – | – | 0 to 33 | 0 to 33 |
| COCCOc1ccc(C(=O)Nc2cc3[nH]c(-c4ccnc(OC)n4)cc3cn2)cc1OC [Example 252, 3-methoxy-4-(2-methoxyethoxy)-N-(2-(2-methoxypyrimidin-4-yl)-1H-pyrrolo[3,2-c]pyridin-6-yl)benzamide] | – | – | – | 0 to 33 | 0 to 33 |
| FC(F)(F)CNc1nccc(-c2cc3cnc(NC4CCOC4)cc3[nH]2)n1 (stereo in doubt) [Example 366, (R)-N-(tetrahydrofuran-3-yl)-2-(2-(2,2,2-trifluoroethylamino)pyrimidin-4-yl)-1H-pyrrolo[3,2-c]pyridin-6-amine] | < 0.5 | – | – | – | – |
| Cc1cc(-c2cc3cnc(N)cc3[nH]2)ccn1 [Example 81, 2-(2-methylpyridin-4-yl)-1H-pyrrolo[3,2-c]pyridin-6-amine] | > 1 | 0 to 33 | 33 to 66 | – | – |
| COc1nccc(-c2cc3cnc(NC(=O)C4C5CCCCC54)cc3n2C)n1 (centres unmarked) [Example 211, N-(2-(2-methoxypyrimidin-4-yl)-1-methyl-1H-pyrrolo[3,2-c]pyridin-6-yl)bicyclo[4.1.0]heptane-7-carboxamide] | – | – | – | 0 to 33 | 67 to 100 |
| Cc1nn(C)cc1C(=O)Nc1cc2[nH]c(-c3ccnc(OCC(F)F)n3)cc2cn1 [Example 317, N-(2-(2-(2,2-difluoroethoxy)pyrimidin-4-yl)-1H-pyrrolo[3,2-c]pyridin-6-yl)-1,3-dimethyl-1H-pyrazole-4-carboxamide] | – | – | – | 0 to 33 | 0 to 33 |
| Cc1cc(-c2cc3cnc(NC(=O)C4(C)CC4)cc3[nH]2)ccn1 [Example 95, 1-methyl-N-(2-(2-methylpyridin-4-yl)-1H-pyrrolo[3,2-c]pyridin-6-yl)cyclopropanecarboxamide] | > 1 | – | – | – | – |
| Cn1ccc(C(=O)Nc2cc3[nH]c(-c4ccncc4)cc3cn2)n1 [Example 238, 1-methyl-N-(2-(pyridin-4-yl)-1H-pyrrolo[3,2-c]pyridin-6-yl)-1H-pyrazole-3-carboxamide] | – | – | – | 0 to 33 | 0 to 33 |
| Cn1cc(-c2cc3cnc(Nc4ccccc4)cc3n2C)cn1 [Example 70, 1-methyl-2-(1-methyl-1H-pyrazol-4-yl)-N-phenyl-1H-pyrrolo[3,2-c]pyridin-6-amine] | > 1 | 33 to 66 | 67 to 100 | – | – |
| COc1nccc(-c2cc3cnc(NC(=O)c4cccc5[nH]ncc45)cc3[nH]2)n1 [Example 269, N-(2-(2-methoxypyrimidin-4-yl)-1H-pyrrolo[3,2-c]pyridin-6-yl)-1H-indazole-4-carboxamide] | – | – | – | 0 to 33 | 0 to 33 |
| Cc1cc(-c2cc3cnc(NC(=O)C45CC(C4)C5)cc3[nH]2)ccn1 [Example 298, N-(2-(2-methylpyridin-4-yl)-1H-pyrrolo[3,2-c]pyridin-6-yl)bicyclo[1.1.1]pentane-1-carboxamide] | – | – | – | 0 to 33 | 0 to 33 |
| CC(C)n1cc(C(=O)Nc2cc3[nH]c(-c4ccnc(OCC(F)(F)F)n4)cc3cn2)cn1 [Example 186, 1-isopropyl-N-(2-(2-(2,2,2-trifluoroethoxy)pyrimidin-4-yl)-1H-pyrrolo[3,2-c]pyridin-6-yl)-1H-pyrazole-4-carboxamide] | – | 0 to 33 | 67 to 100 | – | – |

| SMILES | EC50 [µM] | inhibition at 1 µM (single point inhibition @ 1 uM) [%] | inhibition at 10 µM [1] [%] | inhibition at 1 µM [2] [%] | inhibition at 10 µM [3] [%] |
| --- | --- | --- | --- | --- | --- |
| COCCOc1ccc(C(=O)Nc2cc3[nH]c(-c4ccnc(C)c4)cc3cn2)cc1OC [Example 295, 3-methoxy-4-(2-methoxyethoxy)-N-(2-(2-methylpyridin-4-yl)-1H-pyrrolo[3,2-c]pyridin-6-yl)benzamide] | – | – | – | 0 to 33 | 0 to 33 |
| COc1nccc(-c2cc3cnc(NC(=O)c4cnn([C@H]5CC[C@H](O)CC5)c4)cc3[nH]2)n1 [Example 219, 1-((1r,4r)-4-hydroxycyclohexyl)-N-(2-(2-methoxypyrimidin-4-yl)-1H-pyrrolo[3,2-c]pyridin-6-yl)-1H-pyrazole-4-carboxamide] | – | – | – | 0 to 33 | 33 to 66 |
| Cn1cc(-c2cc3cnc(NC4CCOCC4)cc3n2C)cn1 [Example 223, 1-methyl-2-(1-methyl-1H-pyrazol-4-yl)-N-(tetrahydro-2H-pyran-4-yl)-1H-pyrrolo[3,2-c]pyridin-5-amine] | – | – | – | 0 to 33 | 33 to 66 |
| O=C(Nc1cc2[nH]c(-c3ccncc3)cc2cn1)c1cnn(C2CCOCC2)c1 [Example 154, N-(2-(pyridin-4-yl)-1H-pyrrolo[3,2-c]pyridin-6-yl)-1-(tetrahydro-2H-pyran-4-yl)-1H-pyrazole-4-carboxamide] | – | 0 to 33 | 67 to 100 | – | – |
| Cc1nccc(-c2cc3cnc(NC(=O)c4cnn(C)c4)cc3[nH]2)c1F [Example 283, N-(2-(3-fluoro-2-methylpyridin-4-yl)-1H-pyrrolo[3,2-c]pyridin-6-yl)-1-methyl-1H-pyrazole-4-carboxamide] | – | – | – | 0 to 33 | 0 to 33 |
| c1nc(NC2CCOCC2)cc2[nH]c(C3CCC3)cc12 [Example 121, 2-cyclobutyl-N-(tetrahydro-2H-pyran-4-yl)-1H-pyrrolo[3,2-c]pyridin-6-amine] | > 1 | – | – | – | – |
| CCOc1nccc(-c2cc3cnc(NC(=O)[C@H]4C[C@H](O)C4)cc3[nH]2)n1 [Example 253, (1r,3r)-N-(2-(2-ethoxypyrimidin-4-yl)-1H-pyrrolo[3,2-c]pyridin-6-yl)-3-hydroxycyclobutanecarboxamide] | – | – | – | 0 to 33 | 0 to 33 |
| COc1ccc(Nc2cc3c(cn2)cc(-c2cnn(C)c2)n3C)cc1 [Example 203, N-(4-methoxyphenyl)-1-methyl-2-(1-methyl-1H-pyrazol-4-yl)-1H-pyrrolo[3,2-c]pyridin-6-amine] | – | – | – | 0 to 33 | 67 to 100 |
| Cc1ncc(-c2cc3cnc(NC(=O)c4cnn(C)c4)cc3[nH]2)o1 [Example 267, 1-methyl-N-(2-(2-methyloxazol-5-yl)-1H-pyrrolo[3,2-c]pyridin-6-yl)-1H-pyrazole-4-carboxamide] | – | – | – | 0 to 33 | 0 to 33 |
| Cn1c(-c2ccnc(NCC(F)(F)F)n2)cc2cnc(NC3CCCOC3)cc21 (stereo in doubt) [Example 379, (S)-1-methyl-N-(tetrahydro-2H-pyran-3-yl)-2-(2-(2,2,2-trifluoroethylamino)pyrimidin-4-yl)-1H-pyrrolo[3,2-c]pyridin-6-amine] | > 1 | – | – | – | – |
| CO[C@H]1CC[C@H](Nc2cc3[nH]c(-c4cccnc4)cc3cn2)CC1 [Example 274, N-((1r,4r)-4-methoxycyclohexyl)-2-(pyridin-3-yl)-1H-pyrrolo[3,2-c]pyridin-6-amine] | – | – | – | 0 to 33 | 0 to 33 |
| Cc1nccc(-c2cc3cnc(NC(=O)C4CC4)cc3n2C)n1 [Example 100, N-(1-methyl-2-(2-methylpyrimidin-4-yl)-1H-pyrrolo[3,2-c]pyridin-6-yl)cyclopropanecarboxamide] | > 1 | – | – | – | – |
| Cn1c(-c2ccnc(NCC(F)(F)F)n2)cc2cnc(NC3CCCOC3)cc21 (stereo in doubt) [Example 386, (R)-1-methyl-N-(tetrahydro-2H-pyran-3-yl)-2-(2-(2,2,2-trifluoroethyl)amino)pyrimidin-4-yl)-1H-pyrrolo[3,2-c]pyridin-6-amine] | > 1 | – | – | – | – |
| CCn1c(-c2cc(C)ncn2)cc2cnc(NC(=O)C3CC3)cc21 [Example 122, N-(1-ethyl-2-(6-methylpyrimidin-4-yl)-1H-pyrrolo[3,2-c]pyridin-6-yl)cyclopropanecarboxamide] | > 1 | – | – | – | – |
| CC(C)(O)c1cc(-c2cc3cnc(Nc4cccc(-c5nc[nH]n5)c4)cc3[nH]2)ccn1 [Example 215, 2-(4-(6-(3-(1H-1,2,4-triazol-3-yl)phenylamino)-1H-pyrrolo[3,2-c]pyridin-2-yl)pyridin-2-yl)propan-2-ol] | – | – | – | 33 to 66 | 67 to 100 |
| O=C(Nc1cc2[nH]c(-c3ccnc(C(F)(F)F)n3)cc2cn1)[C@H]1C[C@H](O)C1 [Example 92, (1r,3r)-3-hydroxy-N-(2-(2-(trifluoromethyl)pyrimidin-4-yl)-1H-pyrrolo[3,2-c]pyridin-6-yl)cyclobutanecarboxamide] | > 1 | 33 to 66 | 0 to 33 | – | – |
